Measured values: patent US11473151B2, “Diagnostic and therapeutic methods for cancer” (Genentech, Inc., priority 2017, dated 2022)

Test system: mUC patients (IMvigor210)
Assay: Association between mutations (FMOne panel, single genes and pathways) and response to atezolizumab or TMB
Assay type: in vivo, human
Description: In addition, DNA was extracted from FFPE 10 micron sections from 293 patients and submitted to a Clinical Laboratory Improvement Amendments (CLIA)-certified, New York State-accredited, and College of American Pathologists (CAP)-accredited laboratory (Foundation Medicine, Cambridge, Mass.) for targeted next-generation sequencing (NGS)-based genomic profiling. Adaptor-ligated DNA underwent hybrid capture for all coding exons of 395 cancer-related genes plus select introns from 31 genes frequently rearranged in cancer (FMOne panel).
Captured libraries were sequenced to a median exon coverage depth of >500× (DNA) or 3M unique reads (RNA) using Agilent SURESELECT® v5 kit at 51 Mb on the ILLUMINA® HISEQ® 2500, and resultant sequences were analyzed for base substitutions, small insertions and deletions (indels), copy number alterations (focal amplifications and homozygous deletions), and gene fusions/rearrangements, as previously described (Frampton et al. Nat. Biotechnol. 31:1023-1031, 2013). Frequent germline variants from the 1000 Genomes Project (dbSNP142) were removed. To maximize mutation-detection accuracy (sensitivity and specificity) in impure clinical specimens, the test was previously optimized and validated to detect base substitutions at a ≥5% mutant allele frequency (MAF), indels with a ≥10% MAF with ≥99% accuracy, and fusions occurring within baited introns/exons with >99% sensitivity (Frampton et al. supra). Known confirmed somatic alterations deposited in the Catalog of Somatic Mutations in Cancer (COSMIC v62) are called at allele frequencies ≥1% (Forbes et al. Nucleic Acids Res. 39:D945-D950, 2011).
From the FMOne panel, tumor mutational burden was calculated from the number of short variants in coding regions (substitutions and indels, including synonymous alterations) that were detected. Known and predicted germline alterations as well as known somatic and likely somatic variants are not counted. The mutation burden per Mb is the number of mutations counted divided by the Mb of genomic target territory of the FMOne panel. Unless otherwise indicated, FMOne-based mutation burden was used for all analyses around mutation burden.
For each gene, a patient was called mutant if a known or likely mutation was reported for that gene. For pathway-based analyses, a patient was called mutant in a pathway if any gene within the pathway was reported to have a known or likely mutation. Otherwise, a patient was considered to be non-mutant. A Fisher's Exact Test was used to determine whether the number of mutant patients differed between responders (complete and partial responders) and non-responders (stable and progressive disease). An association between mutation status and mutation burden was tested using a Wilcoxon Rank Sum Test. Single gene p-values were corrected for the number of tests performed using Benjamini and Hochberg adjustment. For pathway-based analyses, nominal p-values are reported.

Substance “atezolizumab: anti-PD-L1 antibody (Genentech), CAS Registry Number 1422185-06-5, also known as MPDL3280A” has an estimate (IKBKE mutation status vs response (CR/PR vs. SD/PD)) of 0, an estimate (INPP4B mutation status vs response (CR/PR vs. SD/PD)) of 0.00E+00 and an estimate (IRS2 mutation status vs response (CR/PR vs. SD/PD)) of 4.96E−01. The estimate (JAK1 mutation status vs response (CR/PR vs. SD/PD)) was 0.00E+00, the estimate (JAK2 mutation status vs response (CR/PR vs. SD/PD)) was 3.33E−01 and the estimate (JUN mutation status vs response (CR/PR vs. SD/PD)) was “Inf”. The estimate (KDM5A mutation status vs response (CR/PR vs. SD/PD)) was “Inf”, the estimate (KDM5C mutation status vs response (CR/PR vs. SD/PD)) was 3.30E−01 and the estimate (KDM6A mutation status vs response (CR/PR vs. SD/PD)) was 0.5153. The estimate (KDR mutation status vs response (CR/PR vs. SD/PD)) was 0, the estimate (KEAP1 mutation status vs response (CR/PR vs. SD/PD)) was 0 and the estimate (KEL mutation status vs response (CR/PR vs. SD/PD)) was 0. It also gave an estimate (KIT mutation status vs response (CR/PR vs. SD/PD)) of 0.3333, an estimate (KRAS mutation status vs response (CR/PR vs. SD/PD)) of 1.346 and an estimate (LRP1B mutation status vs response (CR/PR vs. SD/PD)) of 0.1555. The estimate (LRP6 mutation status vs response (CR/PR vs. SD/PD)) was 0, the estimate (LYN mutation status vs response (CR/PR vs. SD/PD)) was “Inf” and the estimate (LZTR1 mutation status vs response (CR/PR vs. SD/PD)) was 0. The estimate (MAGI2 mutation status vs response (CR/PR vs. SD/PD)) was “Inf”, the estimate (MAP2K4 mutation status vs response (CR/PR vs. SD/PD)) was “Inf” and the estimate (MAP3K1 mutation status vs response (CR/PR vs. SD/PD)) was 0.3333. For the same substance, the estimate (MAP3K13 mutation status vs response (CR/PR vs. SD/PD)) was “Inf”, the estimate (MCL1 mutation status vs response (CR/PR vs. SD/PD)) was 0.8339 and the estimate (MDM2 mutation status vs response (CR/PR vs. SD/PD)) was 0.4704. For the same substance, the estimate (MDM4 mutation status vs response (CR/PR vs. SD/PD)) was “Inf”, the estimate (MEN1 mutation status vs response (CR/PR vs. SD/PD)) was 0 and the estimate (MET mutation status vs response (CR/PR vs. SD/PD)) was 0. The estimate (MITF mutation status vs response (CR/PR vs. SD/PD)) was “Inf”, the estimate (MLL2 mutation status vs response (CR/PR vs. SD/PD)) was 1.185 and the estimate (MLL3 mutation status vs response (CR/PR vs. SD/PD)) was 0. For the same substance, the estimate (MPL mutation status vs response (CR/PR vs. SD/PD)) was 0, the estimate (MSH2 mutation status vs response (CR/PR vs. SD/PD)) was 0.6678 and the estimate (MSH6 mutation status vs response (CR/PR vs. SD/PD)) was 1.346. The estimate (MST1R mutation status vs response (CR/PR vs. SD/PD)) was “Inf”, the estimate (MTOR mutation status vs response (CR/PR vs. SD/PD)) was 0.3333 and the estimate (MUTYH mutation status vs response (CR/PR vs. SD/PD)) was 0.6678. For the same substance, the estimate (MYC mutation status vs response (CR/PR vs. SD/PD)) was 1.354, the estimate (MYCL1 mutation status vs response (CR/PR vs. SD/PD)) was 0.6605 and the estimate (MYCN mutation status vs response (CR/PR vs. SD/PD)) was 0.2167. It also gave an estimate (MYST3 mutation status vs response (CR/PR vs. SD/PD)) of 0.6642, an estimate (NBN mutation status vs response (CR/PR vs. SD/PD)) of 0 and an estimate (NCOR1 mutation status vs response (CR/PR vs. SD/PD)) of 1.179. For the same substance, the estimate (NF1 mutation status vs response (CR/PR vs. SD/PD)) was 0.4962, the estimate (NF2 mutation status vs response (CR/PR vs. SD/PD)) was 0.3297 and the estimate (NFE2L2 mutation status vs response (CR/PR vs. SD/PD)) was 0.3333. For the same substance, the estimate (NFKBIA mutation status vs response (CR/PR vs. SD/PD)) was “Inf”, the estimate (NKX2−1 mutation status vs response (CR/PR vs. SD/PD)) was “Inf” and the estimate (NOTCH1 mutation status vs response (CR/PR vs. SD/PD)) was 1.005. For the same substance, the estimate (NOTCH2 mutation status vs response (CR/PR vs. SD/PD)) was 0.6678, the estimate (NOTCH3 mutation status vs response (CR/PR vs. SD/PD)) was “Inf” and the estimate (NOTCH4 mutation status vs response (CR/PR vs. SD/PD)) was 0.6678. For the same substance, the estimate (NRAS mutation status vs response (CR/PR vs. SD/PD)) was 0, the estimate (NTRK1 mutation status vs response (CR/PR vs. SD/PD)) was 0 and the estimate (NTRK3 mutation status vs response (CR/PR vs. SD/PD)) was “Inf”. For the same substance, the estimate (NUP93 mutation status vs response (CR/PR vs. SD/PD)) was 0.6678, the estimate (PALB2 mutation status vs response (CR/PR vs. SD/PD)) was 0.6678 and the estimate (PARK2 mutation status vs response (CR/PR vs. SD/PD)) was “Inf”. The estimate (PARP4 mutation status vs response (CR/PR vs. SD/PD)) was “Inf”, the estimate (PAX5 mutation status vs response (CR/PR vs. SD/PD)) was “Inf” and the estimate (PBRM1 mutation status vs response (CR/PR vs. SD/PD)) was 0.1081. The estimate (PDCD1LG2 mutation status vs response (CR/PR vs. SD/PD)) was 0.6678, the estimate (PDGFRA mutation status vs response (CR/PR vs. SD/PD)) was 0 and the estimate (PIK3C2B mutation status vs response (CR/PR vs. SD/PD)) was “Inf”. The estimate (PIK3CA mutation status vs response (CR/PR vs. SD/PD)) was 0.7935, the estimate (PIK3CB mutation status vs response (CR/PR vs. SD/PD)) was “Inf” and the estimate (PIK3CG mutation status vs response (CR/PR vs. SD/PD)) was 0. The estimate (PIK3R1 mutation status vs response (CR/PR vs. SD/PD)) was 0.3297, the estimate (PIK3R2 mutation status vs response (CR/PR vs. SD/PD)) was 0 and the estimate (PMS2 mutation status vs response (CR/PR vs. SD/PD)) was 0. For the same substance, the estimate (POLE mutation status vs response (CR/PR vs. SD/PD)) was 0, the estimate (PRKCI mutation status vs response (CR/PR vs. SD/PD)) was 0.6678 and the estimate (PRSS8 mutation status vs response (CR/PR vs. SD/PD)) was 0. For the same substance, the estimate (PTCH2 mutation status vs response (CR/PR vs. SD/PD)) was 0, the estimate (PTEN mutation status vs response (CR/PR vs. SD/PD)) was 0.3224 and the estimate (PTPN11 mutation status vs response (CR/PR vs. SD/PD)) was “Inf”. The estimate (PTPRD mutation status vs response (CR/PR vs. SD/PD)) was “Inf”, the estimate (RAD50 mutation status vs response (CR/PR vs. SD/PD)) was “Inf” and the estimate (RAD51C mutation status vs response (CR/PR vs. SD/PD)) was 0. For the same substance, the estimate (RAD51 mutation status vs response (CR/PR vs. SD/PD)) was “Inf”, the estimate (RAF1 mutation status vs response (CR/PR vs. SD/PD)) was 0.5846 and the estimate (RB1 mutation status vs response (CR/PR vs. SD/PD)) was 0.6832. For the same substance, the estimate (RBM10 mutation status vs response (CR/PR vs. SD/PD)) was 0.7743, the estimate (REL mutation status vs response (CR/PR vs. SD/PD)) was 0 and the estimate (RICTOR mutation status vs response (CR/PR vs. SD/PD)) was 0.5352. For the same substance, the estimate (RNF43 mutation status vs response (CR/PR vs. SD/PD)) was 0, the estimate (ROS1 mutation status vs response (CR/PR vs. SD/PD)) was “Inf” and the estimate (RPA1 mutation status vs response (CR/PR vs. SD/PD)) was “Inf”. For the same substance, the estimate (RPTOR mutation status vs response (CR/PR vs. SD/PD)) was “Inf”, the estimate (RUNX1 mutation status vs response (CR/PR vs. SD/PD)) was 0.3333 and the estimate (SDHA mutation status vs response (CR/PR vs. SD/PD)) was “Inf”. The estimate (SETD2 mutation status vs response (CR/PR vs. SD/PD)) was 1.691, the estimate (SF3B1 mutation status vs response (CR/PR vs. SD/PD)) was 0.1646 and the estimate (SLIT2 mutation status vs response (CR/PR vs. SD/PD)) was “Inf”. For the same substance, the estimate (SMAD2 mutation status vs response (CR/PR vs. SD/PD)) was “Inf”, the estimate (SMAD3 mutation status vs response (CR/PR vs. SD/PD)) was “Inf” and the estimate (SMAD4 mutation status vs response (CR/PR vs. SD/PD)) was “Inf”. The estimate (SMARCA4 mutation status vs response (CR/PR vs. SD/PD)) was 0.548, the estimate (SOX2 mutation status vs response (CR/PR vs. SD/PD)) was “Inf” and the estimate (SOX9 mutation status vs response (CR/PR vs. SD/PD)) was “Inf”. The estimate (SOX10 mutation status vs response (CR/PR vs. SD/PD)) was “Inf”.
